Assay results taken from the supplement of paper PMC10307832.

Columns and labels:
Assay in all cases: relative viability (nuclei count vs DMSO), 5 days (fraction); higher = more cells survive
[1] = compound: Cc1ccc2nc(NCCN)c3ncc(C)n3c2c1
Outline: (§1)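 In 1536-well plates, lung cancer cell lines rested overnight at 37 °C before five library-drug doses (not always all listed), √10 apart, were pinned onto vehicle-anchored plates. Nuclei were counted with MetaXpress from 4× Hoechst images taken after 5 days without medium change. Viability compares treated-well with vehicle-well nuclei as a median over plates, and plates needed control CV below 25% plus at least one doubling to pass.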

[2] = compound: O=C(/C=C/c1ccccc1)NC(NC(=S)Nc1cccc2cccnc12)C(Cl)(Cl)Cl [Salubrinal]
Outline: as §1

[3] = compound: Cc1ccc2nc(NCCN)c3ncc(C)n3c2c1 + CS(=O)(=O)N1CCN(Cc2cc3nc(-c4cccc5[nH]ncc45)nc(N4CCOCC4)c3s2)CC1 [Pictilisib] (partner 1 µM)
Outline: (§2)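 Nuclei were stained with Hoechst during a one-step fixation (final 0.05% Triton X-100, 1% formaldehyde, 1 ug/ml Hoechst) carried out 5 days after dosing, then counted on 4× images. The cells, lung cancer lines in 1536-well plates, had been dosed by pin tool the day after seeding with one drug alone or a fixed anchor-drug dose plus five library-drug doses (not always all listed) in √10 steps. Relative viability is the nuclei count in treated wells divided by that in vehicle wells, and each value is the median of duplicate plates.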

[4] = compound: Cc1ccc2nc(NCCN)c3ncc(C)n3c2c1 + Cc1nc(NC(=O)N2CCC[C@H]2C(N)=O)sc1-c1ccnc(C(C)(C)C(F)(F)F)c1 [Alpelisib] (partner 2 µM)
Outline: as §2

UMC-11
relative viability ([1]; 0.04 µM): 1.01 | relative viability ([1]; 0.1265 µM): 0.918 | relative viability ([1]; 0.4 µM): 0.939 | relative viability ([1]; 1.265 µM): 0.965 | relative viability ([1]; 4 µM): 0.946 | relative viability ([2]; 0.08 µM): 0.901 | relative viability ([2]; 0.253 µM): 0.869 | relative viability ([2]; 0.8 µM): 1.09 | relative viability ([2]; 2.53 µM): 1.01 | relative viability ([2]; 8 µM): 1.03 | relative viability ([3]; first compound 0.04 µM): 0.857 | relative viability ([3]; first compound 0.1265 µM): 0.692 | relative viability ([3]; first compound 0.4 µM): 0.808 | relative viability ([3]; first compound 1.265 µM): 0.813 | relative viability ([3]; first compound 4 µM): 0.708 | relative viability ([4]; first compound 0.04 µM): 0.946 | relative viability ([4]; first compound 0.1265 µM): 0.906 | relative viability ([4]; first compound 0.4 µM): 1.03 | relative viability ([4]; first compound 1.265 µM): 0.995 | relative viability ([4]; first compound 4 µM): 0.817
